Measurements published in ChEMBL document CHEMBL1140542, “Cryptadines A and B, novel C27N3-type pentacyclic alkaloids from Lycopodium cryptomerinum” (Bioorg Med Chem, 2007).

Biological target: T1, Acetylcholinesterase (Bos taurus, UniProt P23795)
T1 sequence (P23795 whole entry): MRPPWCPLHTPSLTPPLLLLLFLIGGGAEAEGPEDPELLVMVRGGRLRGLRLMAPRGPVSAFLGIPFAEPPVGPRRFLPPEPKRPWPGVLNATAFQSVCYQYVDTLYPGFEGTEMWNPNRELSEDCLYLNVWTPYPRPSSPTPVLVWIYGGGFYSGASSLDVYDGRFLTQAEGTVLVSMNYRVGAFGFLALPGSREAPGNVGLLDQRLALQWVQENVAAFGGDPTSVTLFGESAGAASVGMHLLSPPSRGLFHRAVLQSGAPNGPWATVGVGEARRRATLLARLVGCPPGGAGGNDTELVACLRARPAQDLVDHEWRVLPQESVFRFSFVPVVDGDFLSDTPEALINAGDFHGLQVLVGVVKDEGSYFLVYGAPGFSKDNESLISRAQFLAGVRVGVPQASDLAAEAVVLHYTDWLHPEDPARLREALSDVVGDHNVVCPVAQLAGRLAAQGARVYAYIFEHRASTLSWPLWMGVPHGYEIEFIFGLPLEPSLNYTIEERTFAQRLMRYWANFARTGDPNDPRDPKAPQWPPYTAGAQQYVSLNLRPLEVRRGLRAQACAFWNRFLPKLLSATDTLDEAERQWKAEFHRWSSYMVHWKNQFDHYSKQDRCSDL
Experiment: Inhibition of bovine acetylcholinesterase

Compound: CC(=O)N1CCCC2=C(C[C@H]3CCC[C@H](CC4=C5CCCN(C)[C@H]5C[C@H](C)C4)N3)C[C@H](C)C[C@@H]21 [CRYPTADINE B]
- IC50: 18.5 µM

Compound: CC(=O)N1CCCC2=C(C[C@H]3CCC[C@H](CC4=C5CCCN(C)[C@H]5C[C@@H](C)C4)N3)C[C@H](C)C[C@@H]21 [CRYPTADINE A]
- IC50: 106 µM
